Legend:
[1] = Apparent permeability in MDCK-MDR1 cells; assay type: ADME, cell-based, Canis lupus familiaris; conditions: dog
[2] = Volume of distribution at steady state in rat at […], iv; assay type: ADME, organism-based; conditions: in vivo, dose 0.44 mg/kg, read-out: Vdss
[3] = Cmax in rat at […], iv; assay type: ADME, organism-based; design: route intravenous, dose 0.44 mg/kg; conditions: in vivo
[4] = AUC infinity in rat at […], iv; assay type: ADME, organism-based; design: route intravenous, time infinity, dose 0.44 mg/kg; conditions: in vivo
[5] = Cmax in rat at 3 mg/kg, po; assay type: ADME, organism-based; design: route oral, dose 3 mg/kg; conditions: in vivo
[6] = AUC infinity in rat at 3 mg/kg, po; assay type: ADME, organism-based; design: time infinity, route oral, dose 3 mg/kg; conditions: in vivo
[7] = Oral bioavailability in rat at 3 mg/kg; assay type: ADME, organism-based; conditions: in vivo

- Papp [1]: 470 nm/s
- Vd [2]: 1.7 L/kg
- Cmax [3]: 0.278 µg/mL
- AUC(0-inf) [4]: 0.4 µg·h/mL
- Cmax [5]: 0.52 µg/mL
- AUC(0-inf) [6]: 1.78 µg·h/mL
- bioavailability [7]: 65%
Compound: Cc1c(F)c(Nc2ccc(-c3cn(C)cn3)cn2)cc2c1ncn2CC1CC1

From ChEMBL document CHEMBL4699487, “Discovery of ONO-8590580: A novel, potent and selective GABA α negative allosteric modulator for the treatment of cognitive disorders” (Bioorg Med Chem Lett, 2020)
